Legend:
[1] = tested on: GH-induced GHR-Jak2-Stat5 signaling in IM9 lymphoblasts; assay: Flow cytometric (FACS) pSTAT5 test, GH-induced, IM9 cells in whole blood; conditions: drugs 50 µM for 15 MIN
Description: First round: The PerFix EXPOSE (Beckman Coulter), was used to fix and permeabilize cells according to the optimized procedure described in Malergue et al., 2015 ([36]). Samples were analyzed in FC500 MPL. Data were analyzed with Kaluza software (Beckman Coulter). Second round: the PerFix EXPOSE was used according to the IFU and samples were analyzed in a Navios Cytometer. The first screening used pure IM-9 cells, whereas in the second round they were spiked in 100 µL whole blood (EDTA tubes). 15 min after the inhibitory compounds, the activators were added for 20-30 min.
In short: A mixture of blood and
IM9 human lymphoblast was incubated with the drugs (50 µM) for 15 MIN; GH and GM-CSF
were added 7 min before the cells were fixed with formaldehyde. Blood cells are sensitive to
GM-CSF, and not to GH; IM9 cells are sensitive to GH. A mixture of three antibodies in three
colors; CD14-FITC, CD34-PE and p-Stat5-Alexa 647 was used to analyze the p-Stat5 levels
of monocytes and IM9 cells.
Fig. S8A. FACS plots of compounds that inhibit GH-induced GHR-Jak2-Stat5 signaling in IM9 lymphoblasts.
The end point of the signaling cascade is measured by assessing the phosphorylation status of STAT5.
Stat5. Conc of drugs: 1 mM; incubation time 30 min
Fig. S8B. FACS plots of compounds that inhibit GM-CSF-Jak2-Stat5 signaling in blood monocytes. The end
point of the signaling cascade is measured by assessing the phosphorylation status of STAT5.

[2] = tested on: phosphorylated fos-GHRct (fos-GHRct/Jak2 signaling); assay: Cell based primary screen: immune fluorescence (anti-GHR, anti-pY, anti-pJak2, anti-pSTAT5) of fos-GHRct-transfected γ2A iJak2 cells; design: species or system human; conditions: for IC50: Homo sapiens, Table_2.xlsx, second analogue set, read-out: GHR INHIBITORS, BM#, IC50
Description: Drug handling and cell-based assays are detailed in Supplementary Data 1 , automation. High-Content StratoMineR ([35]). After incubation with the compounds, the cells were fixed and the fluorescence (anti-GHR, anti-pY, anti-pJak2, anti-pSTAT5) was quantitated.
As it was unknown whether the GH/IGF1 axis is druggable, we designed a broad strategy based on our previous studies in which soluble fos-zipped GHR cytosolic tails (fos-GHRct) can serve as signaling complexes if co-expressed with Jak ([32], [39]). Fos-GHRct expressed without Jak2 is immediately degraded by the ubiquitin pathway. Phosphorylated fos-GHRct (fos-pGHRct) detaches from Jak2 and unzips. Only unzipped fos-pGHRct are protected from proteasomal degradation and accumulate in the cell. […] For 6 scenarios the signal will be decreased: (1) inhibition of Jak2 kinase activity, (2) inhibition of fos-GHRct expression, (3) inhibition of the fos-GHRct : Jak2 interaction, (4) increased degradation of fos-pGHRct, (5) increased degradation of Jak2, and (6) dephosphorylation of fos-pGHRct ([32], [39]).
Figure 1 Diagram of the primary screen. […] If fos-GHRct and Jak2 bind via FERM and box-1, Jak2 gets activated and phosphorylates itself, the dimerized fos-GHRct and STAT5b. After phosphorylation of fos-GHRct, Jak2 and STAT5, the complex dissociates. As fos-pGHRct is protease-resistant, it accumulates in the cells. Unphosphorylated fos-GHRct is rapidly degraded. Steady state levels of fos-pGHRct are lower if one of the 6 scenarios is valid. The cell-based assay was performed in γ2A cells carrying inducible Jak2 (iJak2) or binding-deficient iJak2 Y119E (as control) ( Figure 2 ). […]
1. Cell based primary screen
The assay was based on Fos-zippered GHR cytosolic tails (fos-GHRct) subsequently acting […]
Fig S1A. Immune Fluorescence staining of γ2a Fig S1B. Immune Fluorescence staining of γ2a monoclonal cell line stably transfected with an monoclonal cell line stably transfected with an inducible Jak2 WT expression construct. inducible Jak2 Y119E expression construct. aim we used a human fibroblast cell line
From this line we generated doxycycline inducible Jak2 clones, expressing either wild type Jak2 or Y119E mutant Jak2 whose FERM domain does […]
To establish a sensitive test, sufficient […]
control the system, we used fos-GHRct mutated in box-1 or the cell line expressing mutant (Y119E) Jak2. The box-1 motif is the binding site of Jak2 in GHR; mutation of this motif (all four proline into alanine) is known to reduce the binding between GHR and Jak2. In the primary screen we measured 4 different signals: fos-GHRct (anti-GHR), tyrosine phosphorylated fos-GHRct (anti-pY), tyrosine phosphorylated Jak2 (anti-pY or anti- […]
inhibition of either fos-GHRct stabilization or fos-GHRct synthesis, are considered positive.
Immunoblots are not appropriate for high throughput screening. Using fos-GHRct-transfected cells as in Fig. S3 and pY-specific primary antibodies, we developed a high throughput screening assay based on pY-fos-GHRct immune fluorescent detection in 384-well plates with automated microscopy. […]
panel). From left to right: Dapi staining to visualize nuclei, fos-GHRct staining: GHRtails are detected by […]

MM231 = tested on: MM231; design: method as in PMID 28576744, PMID 17463090; conditions: cited from earlier work
hGH = assay: Steady state hGH in hGH-transfected Y2A cells (general protein synthesis); format: cell-based, human; conditions: drug treatment overnight (10 µM); CHX 40 µg/ml
From the text: Figure S14. The best 5 compounds from the dose-response curves were used to test their effect on cell proliferation. They inhibit proliferation of triple negative human breast cancer (MDA-MB-231) cells and colon […]
8. Effect of selected drugs on GH synthesis […]
intracellular steady state concentration of a secretory glycoprotein (human growth hormone, hGH): its steady state is the result of synthesis, glycosylation, intracellular transport and […]
amount of hGH, while none of the compounds changed the steady state concentration in the […]
Figure S15. Y2A cells were transfected with 5 µg of a hGH-pcDNA construct in a 24-well plate; drug treatment overnight (10 µM) as indicated (CHX, cycloheximide 40 µg/ml). […]
control drug, 10 µM. Right lane: human GH 20 ng (control). Only cycloheximide decreased the steady state concentration of hGH in the cells. hGH in the lysates was detected with a rabbit anti-GH antibody.
Furqan, M., N. Mukhi, B. Lee, and D. Liu. 2013. Dysregulation of JAK-STAT pathway in hematological malignancies and JAK inhibitors for clinical application. Biomarker research. 1:5.
Malergue, F., A. van Agthoven, C. Scifo, D. Egan, and G.J. Strous. 2015. Automation of a phospho-STAT5 staining procedure for flow cytometry for application in drug discovery. J Biomol Screen. 20:416-421.
Nespital, T., L.M. van der Velden, A. Mensinga, E.D. van der Vaart, and G.J. Strous. 2016. […]

[3] = tested on: COLO-205 human colon cancer cells; design: method as in PMID 15736405; conditions: cited from earlier work

| IC50 [2] [nM] | Molecule | other results |
| --- | --- | --- |
| 200 | Cc1nc(N)nc(N)c1CCC(C)c1ccc(F)cc1 (stereo not drawn) [BM006] | – |
| 400 | CC(C)(/C=C/c1c(N)nc(N)nc1CCC(F)(F)F)c1ccc(C(F)(F)F)cc1 [BM007] | – |
| 500 | Cc1cc(C)cc(-c2ccc3nc(N)nc(N)c3c2C)c1 [BM008] | – |
| 600 | Nc1nc(N)c2c(ccc3c2ccn3CC2CC2)n1 [BM009] | – |
| 900 | Cc1c(-c2cccc(S(C)(=O)=O)c2)ccc2nc(N)nc(N)c12 [BM011] | – |
| 900 | Cc1c(-c2cccc(C(F)(F)F)c2)ccc2nc(N)nc(N)c12 [BM013] | – |
| 900 | CC1(C)Cc2ccc3nc(N)nc(N)c3c2O1 [BM014] | – |

The next lines start with the molecule.

| Molecule | IC50 [2] [nM] | other results |
| --- | --- | --- |
| O=C1C(Cl)=C/C(=N/S(=O)(=O)c2cccs2)c2ccccc21 [AQ-390/41647621] | – | inhibition in the FACS assay [1]: > 30% |
| CCOC(=O)CCOc1c(OC)cc(NCc2ccc3nc(N)nc(N)c3c2C)cc1OC [BM005] | 200 | – |
| Cc1nc(N)nc(NCc2ccccn2)c1/C=C/C(C)(C)c1ccc(C(F)(F)F)cc1 [BM010] | 800 | – |
| CCn1c(C(=O)N(C2CC2)C2CC2)cc2c3c(ncn3C)c(Nc3cc(C)n(C)n3)nc21 [BMS-911543, reference compound] | – | IC50, percentage pY positive cells ([2]; γ2A cells treated for 24 h, Fig S5): nanomolar range |
| Cc1ccc(S(=O)(=O)OCC(=O)Nc2ccc(C(=O)O)c(O)c2)cc1 [S3I-201] | – | tumor response (in words) (MM231): tumor regression |
| C[C@@H]1C[C@@H]([C@H](O)CC2CC(=O)NC(=O)C2)C(=O)[C@@H](C)C1 [cycloheximide] | – | steady state concentration of hGH in the cells (hGH): decreased |
| pegvisomant | – | decrease in tumor weight compared to controls [3]: 44%; decrease in tumor-volume compared to controls [3]: 39% |

Source: publication PMC9365994, “Small molecules to regulate the GH/IGF1 axis by inhibiting the growth hormone receptor synthesis” (Frontiers in Endocrinology, 2022)
